Test results from patent publication US20210299079A1, “MONOMETHYL FUMARATE-CARRIER CONJUGATES AND METHODS OF THEIR USE” (Flagship Pioneering Innovations V, Inc., priority 2018, published 2021).

Legend:
TNFα = test: Cytokine Release from Human PBMCs: TNFα; format: cell-based; details: LPS, 24 hours, Concentration 100 μM
Description: (§1) Human donor blood (8 mL) was collected in sodium citrate CPT tubes and centrifuged at 1,600×g for 20 minutes at room temperature. Buffy coat containing PBMCs was collected and transferred to a 50 mL conical tube containing 30 mL of RPMI-1640 medium at room temperature (supplemented with penicillin-streptomycin). PBMCs samples were centrifuged at 400×g for 10 minutes at 10° C. The pelleted PBMCs were washed twice in 10 ml of RPMI-1640 medium (supplemented with penicillin-streptomycin), then resuspended in RPMI-1640 medium (supplemented with penicillin-streptomycin, fetal bovine serum, and L-Glutamine). PBMCs were filtered through a 70 micron mesh to remove any cellular debris. […] PBMCs in a 96-well plate were rested for 30 minutes in a 37° C., 5% CO2 incubator, then subsequently treated with 10 μI of indicated compound. After 2 hours 10 μL of LPS (0111:64) 1 mg/mL was added to test wells. After 24 hours of incubation at 37° C., 5% CO2, 100 μL of cell supernatant was collected and transferred to a 96-well plate (non-tissue treated, flat bottom). The plate was centrifuged at 350×g for 5 minutes at room temperature, and then the clear supernatant transferred to a new 96-well plate (non-tissue treated, flat bottom). The remaining cells were tested for viability using CellTiter-Glo® Luminescent Cell Viability Assay (Promega). The supernatant was analyzed for TNFα, IL-6 and IL-1β (kit […] Systems), using Luminex Immunoassay Technology (MAGPIX System).

IL-6 = test: Cytokine Release from Human PBMCs: IL-6; format: cell-based; details: LPS, 24 hours, Concentration 100 μM
Description: as §1

Structure (SMILES): CCC(=O)O [propionate]
- TNFα % of DMSO control (TNFα): + ((+) 50% > <90% DMSO)
- IL6 % DMSO control (IL-6): + ((+) 50% > <90% DMSO)
